Laboratory results reported in patent publication EP4806904A1, “POLYPEPTIDE AND USE THEREOF” (Sichuan Gooddoctor Panxi Pharmaceutical Co. Ltd, priority 2023, dated 2026).
Where a SMILES comes first, the peptide text is derived from it. Where no end group is shown, it is not given here. [ ]: non-standard residue; d: D form.

Columns and labels:
[1] = test system: neural stem cell line C17.2; test: Proliferation of neural stem cell line C17.2, BrdU, high-content imaging; format: cell-based; conditions: 100 µg/mL, 48 h; for Proliferation-promoting results: percentage of BrdU-positive cells, significance vs blank control group; for number of BrdU positive cells: vs blank control group, in words
Procedure: • (1) C17.2 cells were seeded in 96-well plates at a concentration of 1500 cells/100 µL/well. After overnight culture for cell adherence, the cells were treated with drugs; • (2) Drug treatment was applied. The final concentration of the polypeptide of the invention was 100 µg/mL. Meanwhile, butylphthalide (NBP, 5 µM) was set as the positive control. The cells were cultured in the incubator for another 48 h; • (3) BrdU was added at 44 h of treatment to a final concentration of 10 µM. Immunofluorescence staining was performed 4 h later, and the percentage of BrdU-positive cells was statistically analyzed using a high-content cell imaging analysis system.

[2] = test system: primary neural stem cells (NSCs); test: Differentiation of primary neural stem cells, βIII-tubulin fluorescence and Neurite Outgrowth Assay; format: cell-based, SD rats; conditions: 100 µg/mL, 4 days; for mean fluorescence intensity of the neuronal marker protein βIII-tubulin: vs blank control group; for mean fluorescence intensity of the neuronal marker protein βIII-tubulin / neurite outgrowth (total neurite length, maximum neurite length, neurite terminals, neurite initiation points): in words; for neurite outgrowth (total neurite length, maximum neurite length, neurite terminals, neurite initiation points): Neurite Outgrowth Assay
Procedure: This part of the experiment requires feeding male and female rats in advance, then extracting hippocampal neural stem cells from newborn SD rats within 24 h of birth, culturing them to P3 for identification, and then using them for experiments. • (1) Extraction and culture of primary neural stem cells (NSCs) • (2) NSCs that have been passaged to P3 and have good viability were seeded in differentiation medium (2% FBS+DMEM/F12 1:1 medium) in 48-well plates with a cell concentration of 5×10^4 cells/mL per well. After overnight culture for cell adherence, the cells were treated with drugs; • (3) Drug treatment was applied. The final concentration of the polypeptide of the invention was 100 µg/mL. Meanwhile, nerve growth factor (NGF, 50 ng/mL) was set as the positive control, and the cells were cultured in the incubator for another 4 days; • (4) Immunofluorescence staining (primary antibody βIII-tubulin) was performed after 4 days of treatment. The average fluorescence intensity of βIII-tubulin was analyzed and the Neurite Outgrowth Assay was performed using a high-content cell imaging analysis system.

[3] = test system: Brain microvascular endothelial cells (BMECs) and brain microvascular smooth muscle cells (BMVSMCs); test: In vitro angiogenesis assay, BMEC/BMVSMC co-culture on matrigel; format: cell-based, mouse; conditions: 0.1 mg/L, 48 h
Procedure: First, mouse brain microvascular pellets were obtained by differential centrifugation. Brain microvascular endothelial cells (BMECs) and brain microvascular smooth muscle cells (BMVSMCs) were isolated by digestion with collagenase II, respectively, and cultured in a cell incubator with 5% CO2 at 37°C . Cells at passages 3-6 in good growth condition and logarithmic growth phase were selected for the in vitro angiogenesis assay.
One night before the experiment, the high-concentration matrigel was transferred from a -20°C or -80°C refrigerator to a 4°C refrigerator and allowed to thaw slowly overnight in the 4°C refrigerator. Pipette tips required for the formal experiment were sterilized in advance and pre-cooled in a 4°C refrigerator for subsequent use.
On the day of the experiment, the matrigel was added to a 96-well plate 1 h in advance and placed in a 37°C cell incubator until it solidified. Subsequently, the cells were washed 2 times with 2 mL of PBS buffer, followed by digestion with 0.25% trypsin to obtain EC and VSMC pellets, respectively, and cell counting was performed. A uniform cell suspension containing 5×10^3 BMVSMCs and 1×10^3 BMECs per well was then seeded into the 96-well plate pre-coated with the matrigel, and cultured in a 37°C, 5% CO2 cell incubator for 3 days.
During the culture period, tube formation was observed daily. The medium was changed on day 4, followed by treatment with the polypeptide of the invention at 0.1 mg/L or VEGFA at 10/15/20 ng/L for 48 h, respectively.
On day 5, the cell nuclei and live cells were labeled with Hoechst 33342 and Calcein AM, respectively. High-content brightfield and fluorescence imaging were then performed using a high-content screening system. Finally, angiogenesis in each treatment group was analyzed using the Angiogenesis Analyzer plugin for ImageJ, and statistical analysis was carried out with GraphPad Prism 10.

[4] = significance vs blank control group

Row | Compound | Proliferation-promoting results [1] | number of BrdU positive cells [1] | mean fluorescence intensity of the neuronal marker protein βIII-tubulin [2] | Average fluorescence intensity ([2]; βIII-tubulin, significance vs blank control group) | Cell count [3, 4] | cell proliferation ([3]; vs normal group, in words) | neurite outgrowth (total neurite length, maximum neurite length, neurite terminals, neurite initiation points) [2] | Longest neurite length [2, 4] | Neurite initiation points (branches) [2, 4] | Number of neurite terminals [2, 4] | Total neurite length [2, 4] | Branch length [3, 4] | Number of intersections [3, 4] | angiogenesis-promoting effects ([3]; vs normal group, in words) | Branch length ([3]; vs normal group, in words) | number of junctions ([3]; vs normal group, in words)
1 | ALPAPG [Compound 40, H-Ala-Leu-Pro-Ala-Pro-Gly-Oh] | * (*p < 0.05) | significant increase | significant increase | * (*p < 0.05) | * (*p < 0.05) | only promoted cell proliferation | – | – | – | – | – | – | – | – | – | –
2 | Ac-ALPAPGTL-NH2 [Compound 11, Ac-Ala-Leu-Pro-Ala-Pro-Gly-Thr-Leu-NH2] | ** (**p < 0.01) | significant increase | – | – | – | – | promote neurite outgrowth | ** (**p < 0.01) | *** (***p < 0.001) | ** (**p < 0.01) | *** (***p < 0.001) | * (*p < 0.05) | * (*p < 0.05) | exhibited angiogenesis-promoting effects | – | –
3 | CC(C)C[C@H](NC(=O)[C@@H](NC(=O)CNC(=O)[C@@H]1CCCN1C(=O)[C@@H](C)NC(=O)[C@@H]1CCCN1C(=O)[C@H](CC(C)C)NC(=O)[C@H](C)N)[C@@H](C)O)C(=O)O [Compound 5, H-Ala-Leu-Pro-D-Ala-Pro-Gly-Thr-Leu-OH] (H-ALP[dA]PGTL-OH) | ** (**p < 0.01) | – | – | – | * (*p < 0.05) | – | – | *** (***p < 0.001) | *** (***p < 0.001) | * (*p < 0.05) | ** (**p < 0.01) | – | * (*p < 0.05) | – | no significant effects | promoting effects
4 | H-ALPAAGTL-OH [Compound 17, H-Ala-Leu-Pro-Ala-Ala-Gly-Thr-Leu-OH] | ** (**p < 0.01) | – | tendency to enhance | – | ** (**p < 0.01) | only promoted cell proliferation | – | – | – | – | – | – | – | – | – | –
5 | CC(C)C[C@H](NC(=O)[C@H](NC(=O)CNC(=O)[C@@H]1CCCN1C(=O)[C@H](C)NC(=O)[C@@H]1CCCN1C(=O)[C@H](CC(C)C)NC(=O)[C@H](C)N)[C@H](C)O)C(=O)O [Compound 7, H-Ala-Leu-Pro-Ala-Pro-Gly-D-Thr-Leu-OH] (H-ALPAPG[dT]L-OH) | ** (**p < 0.01) | – | – | – | ** (**p < 0.01) | only promoted cell proliferation | tendency to promote neurite outgrowth | * (*p < 0.05) | – | – | * (*p < 0.05) | – | – | – | – | –
6 | H-ALPAPGTL-NH2 [Compound 10, H-Ala-Leu-Pro-Ala-Pro-Gly-Thr-Leu-NH2] | ** (**p < 0.01) | significant increase | tendency to enhance | – | * (*p < 0.05) | only promoted cell proliferation | tendency to promote neurite outgrowth | – | – | ** (**p < 0.01) | * (*p < 0.05) | – | – | – | – | –
7 | C[C@H](NC(=O)[C@@H]1CCCN1)C(=O)N1CCC[C@H]1C(=O)NCC(=O)O [Compound 36, H-Pro-Ala-Pro-Gly-OH] (H-PAPG-OH) | ** (**p < 0.01) | significant increase | – | – | ** (**p < 0.01) | – | tendency to promote neurite outgrowth | – | – | * (*p < 0.05) | * (*p < 0.05) | ** (**p < 0.01) | – | – | promoting effects | no significant effects
